From patent US7955596B2 (priority 2003, dated 2011)

Tested on: B. anthracis strain 34F2ΔluxS
Assay type: cell-based

CCCCC1=C(Br)/C(=C/Br)OC1=O [furanone 1, (5Z)-4-bromo-5-(bromomethylene)-3-butyl-2(5H)-furanone]
Growth of the 34F2ΔluxS strain (OD600): dramatically inhibited
Growth inhibitory effect for 34F2ΔluxS relative to wild-type 34F2 (20 μg/ml, 30 hrs): prolonged
